How the values were obtained:
[1] = test system: adult rat ventricular myocytes (ARVMs); experiment: Cell shortening/re-lengthening and calcium transient of ARVMs (IonOptix); type: cell-based
[2] = test system: TAC mice; experiment: Hemodynamics in mouse model of heart failure (TAC); type: in vivo; conditions: for ESPVR slope: baseline 3.1; for Tau(1/2): baseline 7.7; for Pmax: baseline 111.1; for HR: baseline 422.1; for +dP/dt Max: baseline 4738.7; for index of contractility ESPVR, dose dependence: infusion of increasing doses
Protocol: Hemodynamics were measured to evaluate the acute effect of Example 1 infusion on the cardiac function of the mouse model of HF. In the first set of experiments, mice were exposed to pressure overload by thoracic aortic constriction (TAC) or sham operation and received either EXAMPLE 1 or vehicle. At two months post-TAC animals developed HF. […] In addition, the positive chronotropic effect of dobutamine was no longer observed in TAC mice (FIG. 9). Following cannulation of the carotid artery and external jugular vein, infusion of EXAMPLE 1 or vehicle was performed as described in Method section. Pressure and conductance catheters were introduced in the LV through the carotid artery. Pressure and volume measurements were made simultaneously and pressure volume curves were constructed as the vehicle or EXAMPLE 1 were infused.
Hemodynamic data were obtained in 1 mg of EXAMPLE 1-treated failing hearts at 30 min and 60 min after compound treatment. […] The improvement occurred within 30 minutes after treatment and maintained for 60 minutes after treatment. […] The effects of EXAMPLE 1 on various hemodynamic parameters are shown in FIG. 9b and Table S1. dP/dt max increased with increasing concentration of EXAMPLE 1 while Tau a parameter of relaxation decreased an indication of enhanced relaxation.
A model of heart failure was created by transaortic constriction in the mouse for 6-8 weeks. Following cannulation of the carotid artery and external jugular vein, infusion of Example 1 or vehicle was performed as shown in the protocol in FIG. 16. Pressure and conductance catheters were introduced in the left ventricle through the carotid artery. Pressure and volume measurements were made simultaneously and pressure volume curves were constructed as the vehicle or Example 1 was infused.

[3] = test system: adult rat ventricular myocytes (ARVMs); experiment: Cell shortening/re-lengthening and calcium transient of ARVMs (IonOptix); type: cell-based; remark: listed apart in the source
Protocol: Calcium-tolerant adult rat ventricular myocytes (ARVMs) were obtained from hearts of male Sprague-Dawley rats (250 to 300 g). The heart was excised and perfused with a standard enzymatic technique. ARVMs were plated on multi-chambered plates or culture dishes, pre-coated with laminin 2 μg/cm^2, at a density of 10^5 cells/cm^2 in DMEM without L-glutamine supplemented with 10 mmol/l HEPES, 3.7 mg/ml NaHCO3, 1 mg/ml glucose, 0.11 mg/ml sodium pyruvate, 2 mg/ml bovine serum albumin, 2 mmol/1 L-camitine, 5 mmol/1 creatine, 5 mmol/1 taurine, 1% penicillin-streptomycin, and 1% gentamycin. Following isolation, cells were allowed to settle for 1 hour. Cultures were incubated at 37° C., in an atmosphere of 5% CO2-95% air. Fresh medium was added gently as medium was being drawn off until the cultures had been thoroughly washed. Only quiescent, rod-shape cardiac myocytes were selected for IonOptix experiments.
Each compound was added at 10 μM. DMSO was used as a control. After 24 hours at 37° C., SERCA2a SUMOylation and functional analysis were determined.
Mechanical properties of ARVMs were assessed using an IonOptix MyoCam® system (IonOptix, Milton, Mass.). In brief, cells were placed in a Warner chamber mounted on the stage of an inverted microscope (Olympus, IX-70) and superfused (1 ml/min at 30° C.) with a buffer containing 131 mM NaCl, 4 mM KCl, 1 mM CaCh, 1 mM MgCh, 10 mM glucose, and 10 mM HEPES, pH 7.4. ARVMs were field stimulated with suprathreshold voltage and at a frequency of 0.5 Hz. […] SoftEdge software (IonOptix) was used to capture changes in cell length during shortening and re-lengthening.
ARVMs were placed in a chamber on an Olympus IX-70 inverted microscope and imaged through a Fluor 40× oil objective. ARVMs were exposed to light emitted by a 75 W lamp and passed through either a 360 or a 380 nm filter (bandwidths were ±15 nm), while being stimulated to contract at 0.5 Hz. Fluorescence emissions were detected between 480 and 520 nm by a photomultiplier tube after first illuminating cells at 360 nm for 0.5 s then at 380 nm for the duration of the recording protocol (333 Hz sampling rate). The 360 nm excitation scan was repeated at the end of the protocol and qualitative changes in intracellular Ca^2+ concentration ((Ca^2+]i) were inferred from the ratio of the fluorescence intensity at two wavelengths.
The effects of the Example compound was examined on isolated rat cardiomyocytes shortening and relaxation parameters. […] Effects of Example 1 on mechanical properties of the ARVMs were assessed using a video-based edge detection system (IonOptix). The time constant of the increase of force during the stretch decreased (tau), percentage of peak shortening (PS), maximal rate of relaxation and contraction were analyzed at 24 hrs postincubation of the compounds in culture media (N=10 ARVMs). The mechanical data were analyzed with student's t-test (FIG. 2A, P<0.05 compared to the DMSO treated cells). SERCA2a SUMOylation profiling was analyzed in a same set of ARVMs (FIG. 2B, WCL, whole cell lysates; S-SERCA2a, SUMOylated SERCA2a).

[4] = failing hearts, 1 mg, 30 min and 60 min after treatment

COc1ccc(-c2nnc(Nc3nc4c(OC)cccc4s3)o2)cc1 [Example 1, N-(4-methoxybenzo[d]thiazol-2-yl)-5-(4-methoxyphenyl)-1,3,4-oxadiazol-2-amine]
Tau value (dose response) ([1]; 0.1 μM): 1.3 ± 0.0 ms | Tau value (dose response) ([1]; 1 μM): 1300 ± 100 ms | cell contractility (peak shortening), dose response ([1]; concentration dependent manner, versus DMSO): significantly increased cell contractility | Tau (parameter of relaxation) with increasing concentration ([2]; TAC mice): decreased | dP/dt max with increasing concentration ([2]; TAC mice): increased | ESPVR slope ([2]; TAC mice, 0.1 mg/kg): 9.0 mmHg/A | Tau(1/2) ([2]; TAC mice, 0.1 mg/kg): 7.5 ms | Pmax ([2]; TAC mice, 0.1 mg/kg): 115.1 mmHg | HR ([2]; TAC mice, 0.1 mg/kg): 417.1 bpm | +dP/dt Max ([2]; TAC mice, 0.1 mg/kg): 4803.3 mmHg/sec | ESPVR slope ([2]; TAC mice, 1.0 mg/kg): 11.2 mmHg/A | Tau(1/2) ([2]; TAC mice, 1.0 mg/kg): 6.4 ms | Pmax ([2]; TAC mice, 1.0 mg/kg): 123.6 mmHg | HR ([2]; TAC mice, 1.0 mg/kg): 422.3 bpm | +dP/dt Max ([2]; TAC mice, 1.0 mg/kg): 5448.8 mmHg/sec | ESPVR slope ([2]; TAC mice, 10 mg/kg): 20.3 mmHg/A | Tau(1/2) ([2]; TAC mice, 10 mg/kg): 6.2 ± 0.4 ms | Pmax ([2]; TAC mice, 10 mg/kg): 124.5 mmHg | HR ([2]; TAC mice, 10 mg/kg): 455.1 bpm | +dP/dt Max ([2]; TAC mice, 10 mg/kg): 6229.4 mmHg/sec | index of contractility ESPVR, dose dependence ([2]; TAC mice): increase in the index of contractility ESPVR in a dose dependent fashion | index of contractility ESPVR, dose dependence ([2]; TAC mice, listed as EXAMPLE 1): increase in the index of contractility, ESPVR in a dose dependent manner | time the improvement was maintained after treatment ([2]; failing hearts, 1 mg): 60 min | time to improvement after treatment ([2]; failing hearts, 1 mg): ≤ 30 min | end systolic pressure-volume relationship (ESPVR) in the LV versus baseline [2, 4]: significantly steeper | rate of LV pressure rise (dP/dt max) versus baseline [2, 4]: increased cardiac contractility | Tau value (dose response) ([3]; 10 μM): 1.0 ± 0.1 ms | effects on mechanical properties of ARVMs (inotropic, lusitropic) ([3]; 24 hrs, versus DMSO): positive inotropic and lusitropic effects | Tau (rate of transient calcium decay) ([3]; isolated adult cardiomyocytes, DMSO 2.4±0.2, n=10): 1.8 ± 0.2 ms | Peak shortening ([3]; isolated adult cardiomyocytes, DMSO 3.0±0.8, n=10): 12.0±0.8% | Maximal rate of relaxation ([3]; isolated adult cardiomyocytes, DMSO 54.0±2.4, n=10): 210.7±19.4 μm/sec | Maximal rate of contraction ([3]; isolated adult cardiomyocytes, DMSO −64.0±7.9, n=10): −185.5±6.5 μm/sec

From US10501453B2, “Benzothiazole or benzoxazole compounds as SUMO activators” (Icahn School of Medicine at Mount Sinai, priority 2012, dated 2019)
